# Molecular target: T1, chemically synthesized HIV protease (Human immunodeficiency virus type 1 group M subtype B, UniProt P12497, C555A/C583A)
# T1 construct: The HIV protease was chemically synthesized; made in house; host or cells: chemical synthesis (no expression host)
# Format: biochemical
# Conditions: inhibitor 5 µM final concentration (Tables 1-2)
# Text: The HPLC condition was as followes. Column: VYDAC 218 TP 54, C18 • Solvent A: 0.1% trifluoroacetic acid aqueous solution • Solvent B: acetonitrile • Gradient: B was increased in 1.0%/min from 100% of A,
row,Molecule,Residual Activity (%)
1,"3-Phenylpropionyl-Msa-(2S,3S)-AHPBA-Pro-Ile-Val-NH2 [Example 62]",3.2
2,"Benzyloxycarbonyl-Val-(2R,3S)-AHPBA-Phe-Val-NH-CH2-CH(CH3)2 [Example HH]",83.4
3,"PhCH2-O-CO-Asn-(2S,3S)-AHPBA-Pro-NH-CH2-C6H11 [Example 49]",51.9
4,"Benzyloxycarbonyl-Val-(2R,3S)-AHPBA-Phe-NH-CH2-CH(CH3)2 [Example JJ]",84.9

# Same assay, conditions: inhibitor 1 mM (Tables 1-2)
row,Molecule,Residual Activity (%)
1,"Furancarbonyl-Asn-(2S,3S)-AHPBA-Pro-Ile-Val-NH2 [Example 65]",9.3
2,"Thiophenecarbonyl-Asn-(2S,3S)-AHPBA-Pro-Ile-Val-NH2 [Example 67]",4.9

# Same assay, conditions: inhibitor 1mM as headed in Tables 3-6
row,Molecule,Residual Activity (%)
1,"1-Naphthoxyacetyl-Msa-(2S,3S)-AHPBA-Thz-NH-chex-ol [Example 158]",<10
2,"Benzyloxycarbonyl-Asn-(2S,3S)-AHPBA-Pro-O-tBu [Example 86]",12.6
3,"Benzyloxycarbonyl-Asn-(2S,3S)-AHPBA-Pro-NH-CH(C2H5)2 [Example 89]",<10
4,"Benzyloxycarbonyl-Asn-(2S,3S)-AHPBA-Pro-Aib-NH2 [Example 93]",<10
5,"Benzyloxycarbonyl-Asn-(2S,3S)-AHPBA-Pro-NH-cyclopropyl [Example 88]",<10
6,"Benzyloxycarbonyl-Asn-(2S,3S)-AHPBA-Pro-NH-tAmyl [Example 87]",5.8
7,"Benzyloxycarbonyl-Asn-(2S,3S)-AHPBA-Inc-NH-tBu [Example 96]",95.2
8,"Benzyloxycarbonyl-Asn-(2S,3S)-AHPBA-Thz-NH-tBu [Example 82]",1.3
9,"Benzyloxycarbonyl-Asn-(2S,3S)-AHPBA-Pro-NH-CH2-C(CH3)3 [Example 83]",12.4
10,"Benzyloxycarbonyl-Asn-(2S,3S)-AHPBA-(D)-Pip-NH-tBu [Example 79]",84.0
11,"Benzyloxycarbonyl-Asn-(2S,3S)-AHPBA-(L)-Pip-NH-tBu [Example 78]",11.7
12,"Benzyloxycarbonyl-Asn-(2S,3S)-AHPBA-Hyp(Bzl)-NH-tBu [Example 95]",34.6

# Same assay, conditions: inhibitor 5mM as headed in Tables 3-6
row,Molecule,Residual Activity (%)
1,"1-Naphthoxyacetyl-Msa-(2S,3S)-AHPBA-Thz-Pip-O-CH3 [Example 159]",90.8
2,"1-Naphthoxyacetyl-Asn-(2S,3S)-AHPBA-Thz-NH-cyclopentyl [Example 128]",10.5
3,"CS(=O)(=O)C[C@H](NC(=O)COc1cccc2ccccc12)C(=O)N[C@@H](Cc1ccccc1)[C@H](O)C(=O)N1CSC[C@H]1C(=O)NCC(N)=O [Example 172, 1-Naphthoxyacetyl-Msa-(2S,3S)-AHPBA-Thz-Gly-NH2]",77.9
4,"1-Naphthoxyacetyl-Mta-(2S,3S)-AHPBA-Thz-NH-tBu [Example 162]",2.9
5,"Benzyloxycarbonyl-Asn-(2S,3S)-AHPBA-Dmp-NH-tBu [Example 182]",26.8
6,"PhCH2-O-CO-Asn-(2S,3S)-AHPBA-(D)-Tic-NH-tBu [Example 103]",91.4
7,"m-Isopropyloxyphenoxyacetyl-Msa-(2S,3S)-AHPBA-Dtc-NH-tBu [Example 166]",2.0
8,"Benzyloxycarbonyl-Asn-(2S,3S)-AHPBA-Cpp-NH-tBu [Example 185]",96.0
9,"m-(Piper-CO-)Ph-O-CH2-CO-Msa-(2S,3S)-AHPBA-Thz-NH-tBu [Example 167]",25.4
10,"CS(=O)(=O)C[C@H](NC(=O)COc1cccc2ccccc12)C(=O)N[C@@H](Cc1ccccc1)[C@H](O)C(=O)N1CSC[C@H]1C(=O)NCCCC(N)=O [Example 173, 1-Naphthoxyacetyl-Msa-(2S,3S)-AHPBA-Thz-GABA-NH2]",65.0
11,"Benzyloxycarbonyl-Asn-(2S,3S)-AHPBA-Ccp-NH-tBu [Example 187]",99.0
12,"Benzyloxycarbonyl-Asn-(2S,3S)-AHPBA-Dtc-NH-tBu [Example 104]",3.8
13,"2-Quinolinecarbonyl-Asn-(2S,3S)-AHPBA-Pro-NH-tBu [Example 138]",27.3
14,"Benzyloxycarbonyl-Asn-(2S,3S)-AHPBA-Pdp-NH-tBu [Example 164]",49.8
15,"Benzyloxycarbonyl-Asn-(2S,3S)-AHPBA-Dmp-NH2 [Example 188]",98.1
16,"Benzyloxycarbonyl-Asn-(2S,3S)-AHPBA-Dtc-NH2 [Example 177]",74.2
17,"Benzyloxycarbonyl-Asn-(2S,3S)-AHPBA-Tcp-NH-tBu [Example 186]",99.5
18,"Benzyloxycarbonyl-Asn-(2S,3S)-AHPBA-Php-NH-tBu [Example 184]",16.8
19,"PhCH2-O-CO-Asn-(2S,3S)-ASPBA-(L)-Tic-NH-tBu [Example 102]",89.2
20,"CC(CC(N)=O)NC(=O)[C@@H]1CSCN1C(=O)[C@@H](O)[C@H](Cc1ccccc1)NC(=O)[C@H](CS(C)(=O)=O)NC(=O)COc1cccc2ccccc12 (stereo partly drawn) [Example 175, 1-Naphthoxyacetyl-Msa-(2S,3S)-AHPBA-Thz-BANB-NH2]",33.0
21,"Bis(4-chlorophenyl)methyloxyacetyl-Asn-(2S,3S)-AHPBA-Pro-NH-tBu [Example 94]",37.0
22,"CC(CNC(=O)[C@@H]1CSCN1C(=O)[C@@H](O)[C@H](Cc1ccccc1)NC(=O)[C@H](CS(C)(=O)=O)NC(=O)COc1cccc2ccccc12)C(N)=O (stereo partly drawn) [Example 174, 1-Naphthoxyacetyl-Msa-(2S,3S)-AHPBA-Thz-BAIB-NH2]",46.6
23,"Benzyloxycarbonyl-Asn-(2S,3S)-AHPBA-Pro-NH-sBu [Example 176]",82.6
24,"2-Quinolinecarbonyl-Asn-(2S,3S)-AHPBA-Dtc-NH-tBu [Example 118]",1.8
25,"Benzyloxycarbonyl-Asn-(2S,3S)-AHPBA decahydroisoquinoline",8.6
26,"1-Isoquinolinecarbonyl-Asn-(2S,3S)-AHPBA-Pro-NH-tBu.AcOH [Example 140]",72.8
27,"CC(C)(C)NC(=O)[C@@H]1CSCN1C(=O)[C@@H](O)[C@H](Cc1ccccc1)NC(=O)[C@H](CS(C)(=O)=O)NC(=O)COc1cccc(C(=O)N2CCOCC2)c1 [Example 168, m-(Morph-CO)-Ph-O-CH2-CO-Msa-(2S,3S)-AHPBA-Thz-NH-tBu]",44.5
28,"CS(=O)(=O)C[C@H](NC(=O)COc1cccc2ccccc12)C(=O)N[C@@H](Cc1ccccc1)[C@H](O)C(=O)N1CSC[C@H]1C(=O)N[C@H](C(N)=O)c1ccccc1 [Example 157, 1-Naphthoxyacetyl-Msa-(2S,3S)-AHPBA-Thz-Phg-NH2]",93.9
29,"1-Naphthoxyacetyl-Msa-(2S,3S)-AHPBA-Oic-NH-tBu [Example 146]",97.5
30,"Benzyloxycarbonyl-Asn-(2S,3S)-AHPBA-Pro-NH-C(CH3)2-CH2-OH [Example 99]",62.2
